Reference: ChEMBL document CHEMBL4665641, “Lead optimization and efficacy evaluation of quinazoline-based BET family inhibitors for potential treatment of cancer and inflammatory diseases” (Bioorg Med Chem Lett, 2019)

Legend:
[1] = Plasma clearance in CD-1 mouse at 2 mg/kg, iv; assay type: ADME, organism-based
[2] = Oral bioavailability in CD-1 mouse at 10 mg/kg; assay type: ADME, organism-based; settings: CD-1, mouse, in vivo
[3] = target: T1, Bromodomain-containing protein 4 (Homo sapiens, UniProt O60885); experiment: Competitive binding affinity to human partial length BRD4 (BD1,2) (N44 to E460 residues) expressed in bacterial expression system by BROMOscan assay
MV4-11 = experiment: Cytotoxicity against human MV4-11 cells assessed as inhibition of cell viability; assay type: functional, cell-based
[4] = Half life in CD-1 mouse at 2 mg/kg, iv; assay type: ADME, organism-based; settings: in vivo
[5] = Half life in CD-1 mouse at 10 mg/kg, po; assay type: ADME, organism-based; settings: in vivo
[6] = Cmax in CD-1 mouse at 2 mg/kg, iv measured after 5 mins; assay type: ADME, organism-based; design: route intravenous, dose 2 mg/kg; settings: CD-1, mouse, in vivo, read-out: Cmax
[7] = Cmax in CD-1 mouse at 10 mg/kg, po; assay type: ADME, organism-based; design: route oral, dose 10 mg/kg; settings: in vivo
[8] = AUC(0 to infinity) in CD-1 mouse at 2 mg/kg, iv; assay type: ADME, organism-based; design: time infinity, route intravenous, dose 2 mg/kg; settings: in vivo; for AUC(0-inf): CD-1, mouse; for AUC: mouse
[9] = AUC(0 to infinity) in CD-1 mouse at 10 mg/kg, po; assay type: ADME, organism-based; design: route oral, time infinity, dose 10 mg/kg; settings: CD-1, mouse, in vivo
[10] = Volume of distribution at steady state in CD-1 mouse at 2 mg/kg, iv; assay type: ADME, organism-based; settings: in vivo, read-out: Vdss
[11] = target: T1, Bromodomain-containing protein 4; experiment: Inhibition of human full-length recombinant N-terminal His-tagged BRD4 (2 to 1362 residues) expressed in Sf9 cells using histone H4 peptide containing acetylated lysine residues as substrate preincubated with enzyme for 30 mins followed by incubation with substrate for 30 mins by Alphascreen assay […]
[12] = Stability in mouse liver microsomes assessed as half life; assay type: ADME, Microsome
Kasumi 1 [13] = experiment: Antitumor activity against human Kasumi-1 cells xenografted in CB17 SCID mouse assessed as tumor volume at 10 mg/kg, po QD for 29 days (reference value: 1734 +/- 220 mm3); assay type: functional; settings: time 29 day
Kasumi 1 [14] = experiment: Antitumor activity against human Kasumi-1 cells xenografted in CB17 SCID mouse assessed as tumor weight at 10 mg/kg, po QD for 29 days (reference value: 2.1+/- 0.3 g); assay type: functional; settings: time 29 day
Kasumi 1 [15] = experiment: Antitumor activity against human Kasumi-1 cells xenografted in CB17 SCID mouse assessed as inhibition of tumor growth at 10 mg/kg, po QD for 29 days; assay type: functional; settings: Kasumi 1, po, 696 h, time 29 day, read-out: TGI

Cn1cc(-c2ccc3nc(-c4cnn(CC(C)(C)O)c4)nc(N4CCOC[C@@H]4c4cccs4)c3c2)ccc1=O
clearance [1]: 6.4 mL/min/kg
bioavailability [2]: 83%
Kd [3]: 300 nM
IC50 (MV4-11): 980 nM
half-life [4]: 2.3 h
half-life [5]: 1.6 h
Cmax [6]: 2040 ng/mL
Cmax ([7]; CD-1, mouse, read-out: Cmax): 2090 ng/mL
AUC(0-inf) [8]: 5550 ng·h/mL
AUC(0-inf) [9]: 22900 ng·h/mL
Vd [10]: 1.08 L/kg
IC50 [11]: 165 nM

Cn1cc(-c2ccc3nc(-c4cnn(CC(C)(C)O)c4)nc(N4CCOC[C@@H]4c4ccc(F)cc4)c3c2)ccc1=O
Kd [3]: 160 nM
IC50 (MV4-11): 870 nM

Cc1noc(C)c1-c1ccc2nc(-c3cnn(CC(C)(C)O)c3)nc(N3CCOC[C@@H]3c3ccc(Cl)cc3)c2c1
clearance [1]: 5.9 mL/min/kg
bioavailability [2]: 44%
Kd [3]: 305 nM
IC50 (MV4-11): 1600 nM
half-life [4]: 2.4 h
half-life [5]: 2.8 h
Cmax [6]: 1800 ng/mL
Cmax ([7]; CD-1, mouse, read-out: Cmax): 1120 ng/mL
AUC(0-inf) [8]: 5720 ng·h/mL
AUC(0-inf) [9]: 12600 ng·h/mL
Vd [10]: 1.58 L/kg
IC50 [11]: 155 nM

CNC(=O)C1CCN(c2nc(N3CCOC[C@@H]3c3ccccc3)c3cc(-c4c(C)noc4C)ccc3n2)CC1
Kd [3]: 73 nM
IC50 (MV4-11): 970 nM

Cc1noc(C)c1-c1ccc2nc(-c3cnn(CC(C)(C)O)c3)nc(N3CCOC[C@@H]3C3CCCCC3)c2c1
Kd [3]: 123 nM
IC50 (MV4-11): 1430 nM
t1/2 [12]: 0.067 h

Cc1noc(C)c1-c1ccc2nc(N3CCC4(CCN(C)C4=O)CC3)nc(N3CCOC[C@@H]3c3ccccc3)c2c1
Kd [3]: 110 nM
IC50 (MV4-11): 1360 nM

Cn1cc(-c2ccc3nc(-c4cnn(CC(C)(C)O)c4)nc(N4CCOC[C@@H]4c4ccc(Cl)cc4)c3c2)ccc1=O
Kd [3]: 119 nM
IC50 (MV4-11): 1140 nM

Cc1cc(-c2ccc3nc(-c4cnn(CC(C)(C)O)c4)nc(N4CCOC[C@@H]4C4CC4)c3c2)cn(C)c1=O
Kd [3]: 70 nM

Cc1noc(C)c1-c1ccc2nc(-c3cnn(CC(C)(C)O)c3)nc(N3CCOC[C@@H]3c3ccc(F)cc3)c2c1
clearance [1]: 5.9 mL/min/kg
bioavailability [2]: 90%
Kd [3]: 58 nM
IC50 (MV4-11): 1270 nM
half-life [4]: 2.6 h
half-life [5]: 2.8 h
Cmax [6]: 1590 ng/mL
Cmax ([7]; CD-1, mouse, read-out: Cmax): 2080 ng/mL
AUC(0-inf) [8]: 5790 ng·h/mL
AUC(0-inf) [9]: 26100 ng·h/mL
Vd [10]: 1.47 L/kg
t1/2 [12]: 0.867 h
IC50 [11]: 13 nM

CNC(=O)Cn1cc(-c2nc(N3CCOC[C@@H]3c3ccccc3)c3cc(-c4c(C)noc4C)ccc3n2)cn1
Kd [3]: 85 nM
IC50 (MV4-11): 1010 nM

Cc1noc(C)c1-c1ccc2nc(N3CCN(CCN(C)C)CC3)nc(N3CCOC[C@@H]3c3ccccc3)c2c1
IC50 (MV4-11): 690 nM
AUC [8]: 585 ng·h/mL

Cc1noc(C)c1-c1ccc2nc(-c3cnn(CC(N)=O)c3)nc(N3CCOC[C@@H]3c3ccccc3)c2c1
Kd [3]: 120 nM
IC50 (MV4-11): 2020 nM

Cn1cc(-c2ccc3nc(-c4cnn(CC(C)(C)O)c4)nc(N4CCOC[C@@H]4c4ccccc4)c3c2)ccc1=O
clearance [1]: 12.3 mL/min/kg
bioavailability [2]: 118%
Kd [3]: 69 nM
IC50 (MV4-11): 740 nM
half-life [4]: 2.2 h
half-life [5]: 1.5 h
Cmax [6]: 1860 ng/mL
Cmax ([7]; CD-1, mouse, read-out: Cmax): 1980 ng/mL
AUC(0-inf) [8]: 2730 ng·h/mL
AUC(0-inf) [9]: 16100 ng·h/mL
Vd [10]: 1.89 L/kg
IC50 [11]: 57 nM

Cc1noc(C)c1-c1ccc2nc(-c3cnn(CC(C)(C)O)c3)nc(N3CCOC[C@H]3c3ccccc3)c2c1
Kd [3]: 260 nM
IC50 (MV4-11): 1730 nM

Cc1noc(C)c1-c1ccc2nc(-c3cnn(CC(C)(C)O)c3)nc(N3CCOC[C@@H]3c3cccs3)c2c1
clearance [1]: 7.3 mL/min/kg
bioavailability [2]: 72%
Kd [3]: 220 nM
IC50 (MV4-11): 1950 nM
half-life [4]: 1.4 h
half-life [5]: 2.4 h
Cmax [6]: 1580 ng/mL
Cmax ([7]; CD-1, mouse, read-out: Cmax): 2220 ng/mL
AUC(0-inf) [8]: 4940 ng·h/mL
AUC(0-inf) [9]: 17700 ng·h/mL
Vd [10]: 1.01 L/kg
IC50 [11]: 364 nM

Cn1cc(-c2ccc3nc(-c4cnn(CC(C)(C)O)c4)nc(N4CCOC[C@@H]4C4CC4)c3c2)ccc1=O
Kd [3]: 2200 nM
IC50 (MV4-11): 2350 nM

Cc1noc(C)c1-c1ccc2nc(-c3cnn(CC(C)(C)O)c3)nc(N3CCN(S(C)(=O)=O)C[C@@H]3c3ccccc3)c2c1
clearance [1]: 6.9 mL/min/kg
bioavailability [2]: 86%
Kd [3]: 68 nM
IC50 (MV4-11): 1130 nM
half-life [4]: 1.4 h
half-life [5]: 1.7 h
Cmax [6]: 2580 ng/mL
Cmax ([7]; CD-1, mouse, read-out: Cmax): 2670 ng/mL
AUC(0-inf) [8]: 4950 ng·h/mL
AUC(0-inf) [9]: 21200 ng·h/mL
Vd [10]: 0.82 L/kg
IC50 [11]: 90 nM

CC(=O)N1CCN(c2nc(N3CCOC[C@@H]3c3ccccc3)c3cc(-c4c(C)noc4C)ccc3n2)CC1
Kd [3]: 42 nM
IC50 (MV4-11): 1430 nM

Cc1noc(C)c1-c1ccc2nc(N3CCC4(CCC(=O)N4C)CC3)nc(N3CCOC[C@@H]3c3ccccc3)c2c1
Kd [3]: 51 nM
IC50 (MV4-11): 1380 nM

Cc1noc(C)c1-c1ccc2nc(-c3cnn(CC(C)(C)O)c3)nc(N3CCOC[C@@H]3C3CCCC3)c2c1
Kd [3]: 155 nM
IC50 (MV4-11): 1540 nM
t1/2 [12]: 0.033 h

CC(=O)N1CCN(c2nc(-c3cnn(CC(C)(C)O)c3)nc3ccc(-c4c(C)noc4C)cc23)[C@@H](c2ccccc2)C1
clearance [1]: 7.3 mL/min/kg
bioavailability [2]: 95%
Kd [3]: 81 nM
IC50 (MV4-11): 850 nM
half-life [4]: 1.5 h
half-life [5]: 1.7 h
Cmax [6]: 2450 ng/mL
Cmax ([7]; CD-1, mouse, read-out: Cmax): 3450 ng/mL
AUC(0-inf) [8]: 4640 ng·h/mL
AUC(0-inf) [9]: 21900 ng·h/mL
Vd [10]: 0.72 L/kg
IC50 [11]: 140 nM

Cc1noc(C)c1-c1ccc2nc(-c3cnn(C(C)(C)CO)c3)nc(N3CCOC[C@@H]3c3ccccc3)c2c1
Kd [3]: 87 nM
IC50 (MV4-11): 1970 nM

Cc1cc(-c2ccc3nc(-c4cnn(CC(C)(C)O)c4)nc(N4CCOC[C@@H]4c4ccc(F)cc4)c3c2)cn(C)c1=O
clearance [1]: 4.5 mL/min/kg
bioavailability [2]: 123%
Kd [3]: 20 nM
half-life [4]: 2.6 h
half-life [5]: 4.2 h
Cmax [6]: 2260 ng/mL
Cmax ([7]; CD-1, mouse, read-out: Cmax): 3180 ng/mL
AUC(0-inf) [8]: 7400 ng·h/mL
AUC(0-inf) [9]: 45700 ng·h/mL
Vd [10]: 1.08 L/kg
Activity (Kasumi 1 [13]): 977 mm3
Activity (Kasumi 1 [14]): 1.24 g
inhibition in vivo at 10 mg/kg (Kasumi 1 [15]): 41%
IC50 [11]: 6 nM

Cc1noc(C)c1-c1ccc2nc(N3CCN(CCN(C)C)CC3)nc(N3CCOC[C@H]3c3ccccc3)c2c1
IC50 (MV4-11): 1280 nM

Cc1noc(C)c1-c1ccc2nc(-c3cnn(CCO)c3)nc(N3CCOC[C@@H]3c3ccccc3)c2c1
Kd [3]: 99 nM

Cn1cc(-c2ccc3nc(-c4cnn(CC(C)(C)O)c4)nc(N4CCOC[C@@H]4C4CCCCC4)c3c2)ccc1=O
Kd [3]: 25 nM
IC50 (MV4-11): 530 nM

Cc1noc(C)c1-c1ccc2nc(-c3cnn(CCO)c3)nc(N3CCOCC3c3ccccc3)c2c1 (stereo unspecified)
Cmax ([7]; mouse): 934 ng/mL
IC50 [11]: 72 nM

Cc1noc(C)c1-c1ccc2nc(-c3cnn(CC(C)(C)O)c3)nc(N3CCNC[C@@H]3c3ccccc3)c2c1
Kd [3]: 88 nM
IC50 (MV4-11): 590 nM
AUC [8]: 123 ng·h/mL

Cc1noc(C)c1-c1ccc2nc(-c3cnn(CC(=O)N(C)C)c3)nc(N3CCOC[C@@H]3c3ccccc3)c2c1
Kd [3]: 110 nM
IC50 (MV4-11): 1800 nM

Cc1noc(C)c1-c1ccc2nc(C(=O)NC3CCN(C)CC3)nc(N3CCOC[C@@H]3c3ccccc3)c2c1
Kd [3]: 210 nM
IC50 (MV4-11): 1600 nM

Cc1noc(C)c1-c1ccc2nc(-c3cnn(CC(C)(C)O)c3)nc(N3CCOC[C@@H]3C3CCC3)c2c1
Kd [3]: 195 nM
IC50 (MV4-11): 2200 nM
t1/2 [12]: 0.3 h
